# Experimental data: patent publication EP2246037A2, “Anti-aging and whitening properties of quercetin, 18a-glycyrrhetinic acid, hederagenin and its derivatives” (Korres S.A. Natural Products, priority 2009, dated 2010)
# Experiments:
# [1] = tested on: HFL-1 human diploid fibroblasts; experiment: β-galactosidase activity staining of continuously treated fibroblasts; assay type: cell-based
# Protocol: The steps, methods and results that were obtained regarding the anti-aging properties of the examined substances are the following: • 1) Study of the lifespan of human diploid fibroblasts in vitro in the presence of the substances. • 1.1. HFL-1 human diploid fibroblasts (HDFs) were used in in vitro conditions (growth at 37°C, 5% CO2 and 95% humidity). • 1.2. The cells were maintained in Dulbecco's modified Eagle's medium (DMEM ®; Invitrogen Life Technologies Inc.) supplemented with 10% (v/v) fetal calf serum, 100 Units/ml penicillin, 100 µg/ml strepromycin, 2 mM glutamine and 1% (v/v) non-essential amino acids (complete medium). • 1.3. The cells were constantly cultured in culture medium supplemented with the substances [final concentration for quercetin (QUER), 18α-glycyrrhetinic acid (18α GA), and hederagenin (HED): 2 µg/ml and for quercetin caprylate (QU-CAP) three concentrations were applied: 0.5, 2 and 5 µg/ml]. Quercetin, 18α-glycyrrhetinic acid and hederagenin were diluted in DMSO (dimethyl sulfoxide) whereas quercetin caprylate was diluted in caprilic/capric triglycerides (CAP). Therefore, the control cultures were incubated in medium supplemented with 0.1% DMSO or 0.1% CAP. • 1.4. The cells were replenished with fresh media supplemented with the substances or the diluents every 24 h and their numbers were examined using a Coulter Z2 ® counter (Coulter Corporation) until they reached senescence (approximately after 13 weeks). The cumulative population doublings performed by each culture were calculated using the following formula: CPD=Σ[PD] where PD=LOG[Nfinal/Ninitial]/LOG[2], where N final represents the number of cells that were measured when each culture reached confluence and N initial represents the number of cells that was initially seeded. • 1.5. Photographs of the cells maintained in cell culture and treated with the various substances for the same time period were taken. • 1.6. […] More specifically, cells that were incubated with quercetin caprylate gave up to 2.8% more population doublings as compared to the population doublings performed by the relative control cultures. Cells that were incubated with the other substances gave up to 2.9% more population doublings as compared to their relative control cultures. • 1.7. […] Cells that were treated with either of the tested substances maintained the young morphology for longer as compared to the control cultures (DMSO-treated and CAP-treated). […] Briefly, 10^5 cells from each culture were seeded in 6-well plates. After 24 h cells were washed with PBS (phosphate buffered saline), fixed in 0.2% glutaraldehyde and 2% formaldehyde for 5 min, washed again with PBS, and finally stained for 24 h at 37 °C in the absence of CO2, in staining solution (150 mM NaCl, 2 mM MgCl2, 5 mM K3Fe(CN)6, 40 mM citric acid, and 12 mM sodium phosphate, pH 6.0) containing 1 mg/ml 5-bromo-4-chloro-3-indolyl-β-D-galactoside. Photographs were then taken. • 1.3. […] HFL-1 HDFs that have senesced in vitro were used (growth at 37°C, 5% CO2 and 95% humidity). More specifically, middle aged HFL-1 HDFs (cpd 59) and terminally senescent HFL-1 HDFs (cpd 65) that had senesced in the absence of any substance were used. • 3.2. The cells were seeded and maintained in complete medium (see 1.2). Culture medium supplemented with the substances [final concentration for quercetin (QUER), 18α-glycyrrhetinic acid (18α GA), and hederagenin (HED): 2 µg/ml and for quercetin caprylate (QU-CAP) three concentrations were applied: 0.5, 2 and 5 µg/ml] or the diluents (0.1% DMSO or 0.1% CAP) were added 24 h later. The cells were replenished with fresh media supplemented with the substances or the diluents every 24 h for 1 week and their numbers were then examined using a Coulter Z2 ® counter (Coulter Corporation). • 3.3. Detection of β-galactosidase activity was performed in these cells as described above and photographs of the cells following β-galactosidase activity assay were taken. • 3.4. […]
# [2] = tested on: proteasome subunits (β5, α7); experiment: Immunoblot of proteasome subunit levels in treated cells; assay type: cell-based, human; details: 24 h treatment
# [3] = tested on: Mouse melanocytes (B10F16 cell line); experiment: Cellular whitening of melanocytes (cell pellet photographs); assay type: cell-based; details: 72 h
# Protocol: The steps, methods and results that were obtained regarding the whitening properties of the examined substances are the following: • A) Cellular whitening of melanocytes. • A.1. Mouse melanocytes (B10F16 cell line) were used in in vitro conditions (growth at 37°C, 5% CO2 and 95% humidity). • A.2. The cells were maintained in Dulbecco's modified Eagle's medium (DMEM®; Invitrogen Life Technologies Inc.) supplemented with 10% (v/v) fetal calf serum, 100 Units/ml penicillin, 100 µg/ml strepromycin, 2 mM glutamine and 1% (v/v) non-essential amino acids (complete medium). • A.3. 10^5 cells were seeded in petri dishes and the following day they were fed with medium supplemented with the substances [final concentration for all substances: 5 µg/ml and 10 µg/ml]. Quercetin (QUER), 18α-glycyrrhetinic acid (18α GA) and hederagenin (HED) were diluted in DMSO whereas quercetin caprylate was diluted in caprilic/capric triglycerides (CAP). Therefore, the control cultures were incubated in medium supplemented with 0.1% DMSO or 0.1% CAP. The media were replenished every 24 h and the cells were kept under these conditions constantly for 72 h. Cells were then collected and pelleted and the cell pellet was photographed. • A.4. […] The result was positively correlated to the concentration of quercetin used. • B) Detection of tyrosinase expression. • B.1. Mouse melanocytes were cultured as described in A.1.-A.3. After 72 h of treatment, the cells were collected, lysed and proteins were extracted and subjected to SDS-PAGE followed by immunoblot analysis against tyrosinase. Protein concentrations were determined using the Bradford method with BSA as a standard. • B.2.
# Photographs of pellet of melanocytes that were treated with the substances for 72 h.
Compound,% β-galactosidase positive cells ([1]; 2 µg/ml) [%],"protein levels of proteasome subunits (β5, α7) [2]",whitening of melanocyte pellet ([3]; lower concentration (5 µg/ml)),"% β-galactosidase positive cells ([1]; 0,5 µg/ml) [%]",% β-galactosidase positive cells ([1]; 5 µg/ml) [%],whitening effect compared to the other substances ([3]; 5 µg/ml and 10 µg/ml),whitening of melanocyte pellet ([3]; both concentrations (5 µg/ml and 10 µg/ml))
CC1(C)CC[C@]2(C(=O)O)CC[C@]3(C)C(=CC[C@@H]4[C@@]5(C)CC[C@H](O)[C@@](C)(CO)[C@@H]5CC[C@]43C)[C@@H]2C1 [Hederagenin],31.8,did not detect any up-regulation,whitening potential,–,–,–,–
quercetin caprylate,32.3,elevated protein levels,–,36.6,47,–,–
CC1(C)[C@@H](O)CC[C@]2(C)[C@H]3C(=O)C=C4[C@H]5C[C@@](C)(C(=O)O)CC[C@]5(C)CC[C@@]4(C)[C@]3(C)CC[C@@H]12 [18α-glycyrrhetinic acid],37.7,similar,whitening potential,–,–,–,–
O=c1c(O)c(-c2ccc(O)c(O)c2)oc2cc(O)cc(O)c12 [Quercetin],13.5,elevated protein levels,–,–,–,notably more intensed,whitening potential
